Patent US12428416B2 (California Institute of Technology, priority 2018, dated 2025)

Experiments:
ERK1 = ERK1 (Homo sapiens, UniProt P27361); test: ERK1 and 2 Enzymatic Inhibition Assay (ERK1); format: biochemical; settings: 10 assay concentrations 2×10^−6 M to 6×10^−11 M, 1% DMSO
Description: (§1) ERK1 and 2 Enzymatic Inhibition Assay
(§2) For the Ki determination assay, 200 μM stock solutions of compounds were subjected to a serial, semi-logarithmic dilution using 100% DMSO as a solvent. 10 distinct concentrations were prepared, with a dilution endpoint of 6×10^−9 M in 100% DMSO. 100% DMSO was used as a control. 10 μL from each of the serial dilutions were aliquoted into separate wells of a 96-well plate and 90 μL of water were added to each of those wells. The plate was shaken thoroughly, and 5 μL from each of the plate's wells were transferred into wells of the assay plate. The final volume of wells in the assay plate was 50 μL. All compounds were tested at 10 assay concentrations in the range from 2×10^−6 M to 6×10^−11 M. The final DMSO concentration in the wells of the assay plate was 1% in all cases.

ERK2 = ERK2 (Homo sapiens, UniProt P28482); test: ERK1 and 2 Enzymatic Inhibition Assay (ERK2); format: biochemical; settings: 10 assay concentrations 2×10^−6 M to 6×10^−11 M, 1% DMSO
Description: as §1, §2

[1] = test system: drug-sensitive cell lines of Table 4; test: Cell line growth retardation assay, average over sensitive cohort; format: cell-based, Human; settings: Homo sapiens, 144 h; geometric mean of IC50s over sensitive cohort (Table 4); 6 days growth; read-out: AvgSens IC50
Description: (§3) Cell Line Growth Retardation Assay
(§4) Cells were seeded at densities of 1,000-5,000 cells per well in 48-well tissue culture plates. After a 24 h rest period, cells were treated with compound at 10 μM, 2 μM, 0.4 μM, 0.08 μM, 0.016 μM, and 0.0032 μM. A group of cells were treated with the vehicle in which the compound was prepared and served as a control. The cells were grown in the presence of compounds for 6 days and were counted on day 0 and day 6. All cell counting was performed using a Synentec Cellavista plate imager. […] Growth inhibition was calculated as a ratio of cell population doublings in the presence of compound versus the absence of compound. […] IC50 values for each compound were calculated by fitting curves to data points from each dose-response assay using the Proc NLIN function in SAS for Windows version 9.2 (SAS Institute, Inc.).
(§5) Designation of Sensitivity and Resistant Cohorts and Calculation of Average IC50 Values
(§6) Human cancer cell lines were grouped as “sensitive” or “resistant” to ERK1 inhibition based on whether their growth was retarded by KO-947 (i.e., 1,5,6,8-tetrahydro-6-(phenylmethyl)-3-(4-pyridinyl)-7H-pyrazolo[4,3-g]quinazolin-7-one) and SCH772984 (i.e., (3R)-1-[2-oxo-2-[4-[4-(2-pyrimidinyl)phenyl]-1-piperazinyl]ethyl]-N-[3-(4-pyridinyl)-1H-indazol-5-yl]-3-pyrrolidinecarboxamide) (data not shown; see Table 4). These sensitive and resistant cohorts were interrogated for response to each compound, and IC50s were calculated for each cell line using the same technique described above. Average IC50s for the sensitive and resistant cohorts were calculated as geometric means of the group.

[2] = test system: drug-resistant cell lines of Table 4; test: Cell line growth retardation assay, average over resistant cohort; format: cell-based, Human; settings: Homo sapiens, 144 h; geometric mean of IC50s over resistant cohort (Table 4); 6 days growth; read-out: AvgRes IC50
Description: as §3, §4, §5, §6

ERK1, sequence (P27361 whole entry): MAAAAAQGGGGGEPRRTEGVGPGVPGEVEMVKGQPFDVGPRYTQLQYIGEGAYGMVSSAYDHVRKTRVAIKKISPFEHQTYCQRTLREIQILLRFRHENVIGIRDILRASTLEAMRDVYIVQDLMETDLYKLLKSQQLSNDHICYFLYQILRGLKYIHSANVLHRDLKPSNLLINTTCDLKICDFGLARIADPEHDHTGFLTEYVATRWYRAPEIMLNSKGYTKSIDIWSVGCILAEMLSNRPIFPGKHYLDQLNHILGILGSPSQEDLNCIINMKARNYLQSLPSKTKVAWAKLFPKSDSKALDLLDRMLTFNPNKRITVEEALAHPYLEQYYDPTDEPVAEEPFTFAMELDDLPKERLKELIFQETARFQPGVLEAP
ERK2, sequence (P28482 whole entry): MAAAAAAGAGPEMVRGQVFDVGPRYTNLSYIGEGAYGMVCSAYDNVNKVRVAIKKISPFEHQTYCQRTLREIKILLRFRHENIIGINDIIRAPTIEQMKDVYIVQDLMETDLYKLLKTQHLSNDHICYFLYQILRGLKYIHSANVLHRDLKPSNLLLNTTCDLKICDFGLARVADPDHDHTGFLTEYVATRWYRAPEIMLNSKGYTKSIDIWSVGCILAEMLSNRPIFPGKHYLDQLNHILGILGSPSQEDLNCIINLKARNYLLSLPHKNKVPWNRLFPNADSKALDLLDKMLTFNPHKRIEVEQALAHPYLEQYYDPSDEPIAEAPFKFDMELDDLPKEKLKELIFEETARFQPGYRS

Kd (ERK1) | Kd (ERK2) | Compound | IC50 [1] | IC50 [2]
≤ 10 nM | ≤ 10 nM | C[C@H](NC(=O)c1ncc(-c2c[nH]c3ncc(N4CCOCC4)cc23)cn1)c1ccccc1Cl [Compound 45, (S)—N-(1-(2-chlorophenyl)ethyl)-5-(5-morpholino-1H-pyrrolo[2,3-b]pyridin-3-yl)pyrimidine-2-carboxamide] | ≤ 250 nM | > 500 nM
≤ 10 nM | ≤ 10 nM | O=C(NC(c1ccccc1)C1CC1)c1ncc(-c2c[nH]c3ncc(N4CCOCC4)cc23)cn1 (centres unmarked) [Compound 49, N-(cyclopropyl(phenyl)methyl)-5-(5-morpholino-1H-pyrrolo[2,3-b]pyridin-3-yl)pyrimidine-2-carboxamide] | 251 to 500 nM | > 500 nM
> 100 nM | > 100 nM | O=C(NCCc1ccccc1)c1ccc(-c2c[nH]c3ncc(N4CCOCC4)cc23)nc1 [Compound 9, 6-(5-morpholino-1H-pyrrolo[2,3-b]pyridin-3-yl)-N-phenethylnicotinamide] | > 500 nM | > 500 nM
> 100 nM | > 100 nM | CN(Cc1ccccc1)C(=O)c1ncc(-c2c[nH]c3ncc(N4CCOCC4)cc23)cn1 [Compound 8, N-benzyl-N-methyl-5-(5-morpholino-1H-pyrrolo[2,3-b]pyridin-3-yl)pyrimidine-2-carboxamide] | > 500 nM | > 500 nM
11 to 100 nM | 11 to 100 nM | O=C(NCCc1ccccn1)c1ncc(-c2c[nH]c3ncc(N4CCOCC4)cc23)cn1 [Compound 60, 5-(5-morpholino-1H-pyrrolo[2,3-b]pyridin-3-yl)-N-(2-(pyridin-2-yl)ethyl)pyrimidine-2-carboxamide] | > 500 nM | > 500 nM
≤ 10 nM | 11 to 100 nM | CC(NC(=O)c1ncc(-c2c[nH]c3ncc(N4C[C@@H](C)O[C@@H](C)C4)cc23)cn1)c1ccccc1 (stereo in doubt) [Compound 36, 5-(5-((2R,6S)-2,6-dimethylmorpholino)-1H-pyrrolo[2,3-b]pyridin-3-yl)-N—((R)-1-phenylethyl)pyrimidine-2-carboxamide] | > 500 nM | > 500 nM
11 to 100 nM | 11 to 100 nM | C[C@H](c1ccccc1)N(C)C(=O)c1ncc(-c2c[nH]c3ncc(N4CCOCC4)cc23)cn1 [Compound 17] | > 500 nM | > 500 nM
≤ 10 nM | ≤ 10 nM | COc1ccccc1[C@H](C)NC(=O)c1ncc(-c2c[nH]c3ncc(N4CCOCC4)cc23)cn1 [Compound 46, (S)—N-(1-(2-methoxyphenyl)ethyl)-5-(5-morpholino-1H-pyrrolo[2,3-b]pyridin-3-yl)pyrimidine-2-carboxamide] | 251 to 500 nM | > 500 nM
≤ 10 nM | 11 to 100 nM | C[C@@H](NC(=O)c1ncc(-c2c[nH]c3ncc(N4CCOCC4)cc23)cn1)c1cccc(C(F)(F)F)c1 [Compound 21, (R)-5-(5-morpholino-1H-pyrrolo[2,3-b]pyridin-3-yl)-N-(1-(3-(trifluoromethyl)phenyl)ethyl)pyrimidine-2-carboxamide] | 251 to 500 nM | > 500 nM
≤ 10 nM | 11 to 100 nM | O=C(NCCc1ccc(F)cc1)c1ncc(-c2c[nH]c3ncc(N4CCOCC4)cc23)cn1 [Compound 62, N-(4-fluorophenethyl)-5-(5-morpholino-1H-pyrrolo[2,3-b]pyridin-3-yl)pyrimidine-2-carboxamide] | > 500 nM | > 500 nM
≤ 10 nM | ≤ 10 nM | O=C(NC(CO)c1ccccc1)c1ncc(-c2c[nH]c3ncc(N4CCOCC4)cc23)cn1 (stereo in doubt) [Compound 53, (S)—N-(2-hydroxy-1-phenylethyl)-5-(5-morpholino-1H-pyrrolo[2,3-b]pyridin-3-yl)pyrimidine-2-carboxamide] | > 500 nM | > 500 nM
11 to 100 nM | 11 to 100 nM | CC(NC(=O)c1ncc(-c2c[nH]c3ncc(N4CCOCC4)cc23)cn1)c1ccn(C)c1 (centres unmarked) [Compound 24, N-(1-(1-methyl-1H-pyrrol-3-yl)ethyl)-5-(5-morpholino-1H-pyrrolo[2,3-b]pyridin-3-yl)pyrimidine-2-carboxamide] | > 500 nM | > 500 nM
≤ 10 nM | ≤ 10 nM | C[C@H](CNC(=O)c1ncc(-c2c[nH]c3ncc(N4CCOCC4)cc23)cn1)c1ccccc1 [Compound 32] | 251 to 500 nM | > 500 nM
≤ 10 nM | ≤ 10 nM | N#Cc1ccccc1CCNC(=O)c1ncc(-c2c[nH]c3ncc(N4CCOCC4)cc23)cn1 [Compound 66, N-(2-cyanophenethyl)-5-(5-morpholino-1H-pyrrolo[2,3-b]pyridin-3-yl)pyrimidine-2-carboxamide] | > 500 nM | > 500 nM
≤ 10 nM | ≤ 10 nM | Cc1ccccc1CCNC(=O)c1ncc(-c2c[nH]c3ncc(N4CCOCC4)cc23)cn1 [Compound 65, N-(2-methylphenethyl)-5-(5-morpholino-1H-pyrrolo[2,3-b]pyridin-3-yl)pyrimidine-2-carboxamide] | ≤ 250 nM | > 500 nM
≤ 10 nM | 11 to 100 nM | O=C(NCc1ccccc1)c1ncc(-c2c[nH]c3ncc(N4CCOCC4)cc23)cn1 [Compound 7, N-benzyl-5-(5-morpholino-1H-pyrrolo[2,3-b]pyridin-3-yl)pyrimidine-2-carboxamide] | > 500 nM | > 500 nM
11 to 100 nM | > 100 nM | CC(NC(=O)c1ncc(-c2c[nH]c3ncc(N4CCC45COC5)cc23)cn1)c1ccccc1 (stereo in doubt) [Compound 43, (R)-5-(5-(6-oxa-1-azaspiro[3.3]heptan-6-yl)-1H-pyrrolo[2,3-b]pyridin-3-yl)-N-(1-phenylethyl)pyrimidine-2-carboxamide] | > 500 nM | > 500 nM
≤ 10 nM | ≤ 10 nM | O=C(NC(c1ccccc1)C(F)(F)F)c1ncc(-c2c[nH]c3ncc(N4CCOCC4)cc23)cn1 (stereo in doubt) [Compound 47, (S)-5-(5-morpholino-1H-pyrrolo[2,3-b]pyridin-3-yl)-N-(2,2,2-trifluoro-1-phenylethyl)pyrimidine-2-carboxamide] | 251 to 500 nM | > 500 nM
> 100 nM | > 100 nM | O=C(NCc1ccc(C(F)(F)F)cc1)c1ncc(-c2c[nH]c3ncc(N4CCOCC4)cc23)cn1 [Compound 10, 5-(5-morpholino-1H-pyrrolo[2,3-b]pyridin-3-yl)-N-(4-(trifluoromethyl)benzyl)pyrimidine-2-carboxamide] | > 500 nM | > 500 nM
11 to 100 nM | 11 to 100 nM | CC(NC(=O)c1ncc(-c2c[nH]c3ncc(Br)cc23)cn1)c1ccccc1 (stereo in doubt) [Compound 67, (R)-5-(5-bromo-1H-pyrrolo[2,3-b]pyridin-3-yl)-N-(1-phenylethyl)pyrimidine-2-carboxamide] | > 500 nM | > 500 nM
≤ 10 nM | 11 to 100 nM | CC(NC(=O)c1ncc(-c2c[nH]c3ncc(N4CCO[C@@H](C)C4)cc23)cn1)c1ccccc1 (stereo in doubt) [Compound 37, 5-(5-((S)-2-methylmorpholino)-1H-pyrrolo[2,3-b]pyridin-3-yl)-N—((R)-1-phenylethyl)pyrimidine-2-carboxamide] | > 500 nM | > 500 nM
≤ 10 nM | ≤ 10 nM | C[C@H](NC(=O)c1ncc(-c2c[nH]c3ncc(-c4ccncc4)cc23)cn1)c1ccccc1 [Compound 39, (S)—N-(1-phenylethyl)-5-(5-(pyridin-4-yl)-1H-pyrrolo[2,3-b]pyridin-3-yl)pyrimidine-2-carboxamide] | ≤ 250 nM | > 500 nM
≤ 10 nM | ≤ 10 nM | Cc1cc(-c2cnc3[nH]cc(-c4cnc(C(=O)NC(C)c5ccccc5)nc4)c3c2)ccn1 (stereo in doubt) [Compound 40, (R)-5-(5-(2-methylpyridin-4-yl)-1H-pyrrolo[2,3-b]pyridin-3-yl)-N-(1-phenylethyl)pyrimidine-2-carboxamide] | ≤ 250 nM | > 500 nM
